The values that follow are results of earlier work, collected in publication PMC4123439 (Bioorganic & medicinal chemistry, 2009).

In this series the test system is Tdp1. The note with it: at concentrations of up to 1 mM.

With `COS(=O)(=O)c1ccc(C)cc1` [methyl p-toluene sulfonate], the Tdp1 inhibitory activity result was “inactive”.
